Here are results for eleven compounds from patent publication US8906914B2, “Ethylene diamine modulators of fatty acid hydrolase” (priority 2009, dated 2014).

The target in one test is T1, Rat FAAH-1 (Rattus norvegicus, UniProt P97612).
T1 construct: expressed in transfected cells
T1 sequence (P97612 1-579): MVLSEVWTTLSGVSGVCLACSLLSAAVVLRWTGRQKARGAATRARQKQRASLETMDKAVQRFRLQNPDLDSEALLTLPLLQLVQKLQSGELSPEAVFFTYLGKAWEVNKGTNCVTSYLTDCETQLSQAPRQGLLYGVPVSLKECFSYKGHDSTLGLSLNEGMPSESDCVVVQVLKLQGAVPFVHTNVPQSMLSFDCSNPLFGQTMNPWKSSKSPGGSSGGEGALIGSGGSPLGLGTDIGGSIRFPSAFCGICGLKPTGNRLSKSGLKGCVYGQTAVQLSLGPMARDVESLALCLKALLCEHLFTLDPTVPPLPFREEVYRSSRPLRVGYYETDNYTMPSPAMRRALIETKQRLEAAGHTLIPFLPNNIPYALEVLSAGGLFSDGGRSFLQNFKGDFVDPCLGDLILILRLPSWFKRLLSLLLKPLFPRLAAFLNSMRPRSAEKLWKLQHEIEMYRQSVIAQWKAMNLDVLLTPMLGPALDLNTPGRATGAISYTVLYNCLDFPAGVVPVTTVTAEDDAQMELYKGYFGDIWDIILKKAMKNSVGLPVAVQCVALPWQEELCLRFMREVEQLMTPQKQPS
Description: Rat FAAH-1 assay (Assay Method 2), 3H-anandamide hydrolysis in cell homogenate. It counts as biochemical. On the procedure:
A. Transfection of Cells with Rat FAAH-1
(§1) A 10-cm tissue culture dish with a confluent monolayer of SK-N-MC cells was split 2 days (d) prior to transfection. Using sterile technique, the media was removed and the cells were detached from the dish by the addition of trypsin. One fifth of the cells were then placed onto a new 10-cm dish. Cells were grown in a 37° C. incubator with 5% CO2 in Minimal Essential Media Eagle with 10% Fetal Bovine Serum. After 2 d, cells were approximately 80% confluent. These cells were removed from the dish with trypsin and pelleted in a clinical centrifuge. The pellet was re-suspended in 400 μL complete media and transferred to an electroporation cuvette with a 0.4 cm gap between the electrodes. Supercoiled rat FAAH cDNA (1 μg) was added to the cells and mixed. The voltage for the electroporation was set at 0.25 kV, and the capacitance was set at 960 μF. After electroporation, the cells were diluted into complete media (10 mL) and plated onto four 10-cm dishes. Because of the variability in the efficiency of electroporation, four different concentrations of cells were plated. The ratios used were 1:20, 1:10, and 1:5, with the remainder of the cells being added to the fourth dish. The cells were allowed to recover for 24 h before adding the selection media (complete media with 600 μg/mL G418). After 10 d, dishes were analyzed for surviving colonies of cells. Dishes with well-isolated colonies were used. Cells from individual colonies were isolated and tested.
(§2) The assay mixture consisted of 50 μL of the cell homogenate, 10 μL of the test compound, and 40 μL of anandamide [1-^3H-ethanolamine] (^3H-AEA, Perkin-Elmer, 10.3 Ci/mmol), which was added last, for a final tracer concentration of 80 nM. The reaction mixture was incubated at rt for 1 h. During the incubation, 96-well Multiscreen filter plates (catalog number MAFCNOB50; Millipore, Bedford, Mass., USA) were loaded with 25 μL of activated charcoal (Multiscreen column loader, catalog number MACL09625, Millipore) and washed once with 100 μL of MeOH. Also during the incubation, 96-well DYNEX MicroLite plates (catalog number NL510410) were loaded with 100 μL of MicroScint40 (catalog number 6013641, Packard Bioscience, Meriden, Conn., USA). After the 1 h incubation, 60 μL of the reaction mixture were transferred to the charcoal plates, which were then assembled on top of the DYNEX plates using Centrifuge Alignment Frames (catalog number MACF09604, Millipore). The unbound labeled ethanolamine was centrifuged through to the bottom plate (5 min at 2000 rpm), which was preloaded with the scintillant, as described above. The plates were sealed and left at rt for 1 h before counting on a Hewlett Packard TopCount.
(§3) Where activity is shown as greater than (>) a particular value, the value is the solubility limit of the compound in the assay medium or the highest concentration tested in the assay.

A further test has as its target T2, FAAH (Homo sapiens, UniProt O00519).
T2 sequence (O00519 1-579): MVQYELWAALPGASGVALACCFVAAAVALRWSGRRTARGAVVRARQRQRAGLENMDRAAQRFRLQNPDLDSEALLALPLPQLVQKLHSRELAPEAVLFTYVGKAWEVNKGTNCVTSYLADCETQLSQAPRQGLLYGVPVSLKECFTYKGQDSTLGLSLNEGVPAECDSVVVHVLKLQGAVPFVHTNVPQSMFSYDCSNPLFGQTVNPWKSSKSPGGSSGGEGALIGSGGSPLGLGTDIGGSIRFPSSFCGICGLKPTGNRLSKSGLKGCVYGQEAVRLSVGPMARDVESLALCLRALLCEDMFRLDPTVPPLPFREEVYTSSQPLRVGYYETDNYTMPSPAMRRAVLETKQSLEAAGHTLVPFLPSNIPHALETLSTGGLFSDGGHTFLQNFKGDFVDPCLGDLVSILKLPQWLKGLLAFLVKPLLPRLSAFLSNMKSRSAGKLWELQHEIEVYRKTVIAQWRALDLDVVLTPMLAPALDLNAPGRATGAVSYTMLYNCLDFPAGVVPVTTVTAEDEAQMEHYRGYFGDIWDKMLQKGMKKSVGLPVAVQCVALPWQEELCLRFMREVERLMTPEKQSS
Description: Human FAAH assay (Assay Method 1), 3H-anandamide hydrolysis in cell homogenate. It counts as biochemical. Also on record: expressed in transfected cells; alternatively T84 frozen cell pellets (endogenous FAAH). The procedure: A. Transfection of Cells with Human FAAH
as §1, with “Supercoiled human” for “Supercoiled rat”
as §2, with “[1-3H-ethanolamine]” for “[1-^3H-ethanolamine]”
as §3

Where a name gives a salt, the structure may show the parent alone.

With `CS(=O)(=O)c1ccc([C@@H](N)CNc2cc(-c3ccc(C(F)(F)F)c(Cl)c3)ncn2)cc1` [Example 63, (1R)—N^2-[6-(3-Chloro-4-trifluoromethyl-phenyl)-pyrimidin-4-yl]-1-(4-methanesulfonyl-phenyl)-ethane-1,2-diamine], the IC50 against Rat FAAH-1 and against FAAH was > 10 µM in each case.
For `N[C@@H](CNc1cc(-c2ccc(OC(F)(F)F)c(Cl)c2)ncn1)c1ccccc1` [Example 7, (1R)—N^2-{6-[3-Chloro-4-(trifluoromethoxy)phenyl]pyrimidin-4-yl}-1-phenylethane-1,2-diamine hydrochloride acid salt], the IC50 at Rat FAAH-1 turned out to be 0.12 µM; against FAAH it was 0.053 µM.
On the same counts, the results for `N[C@@H](CNc1cc(-c2ccc(C(F)(F)F)c(Cl)c2)ncn1)c1ccc(Cl)c(F)c1` [Example 45, (1R)—N^2-1-(4-Chloro-3-fluoro-phenyl)-[6-(3-chloro-4-trifluoromethyl-phenyl)-pyrimidin-4-yl]-ethane-1,2-diamine] are 0.07 µM and 0.08 µM.
For the compound `N[C@@H](CNc1cc(-c2ccc(C(F)(F)F)cc2)ncn1)c1ccccc1` [Example 5, (1R)-1-Phenyl-N^2-{6-[4-(trifluoromethyl)phenyl]pyrimidin-4-yl}ethane-1,2-diamine hydrochloride acid salt], the results for the IC50 on Rat FAAH-1 and at FAAH were 1 µM and 0.13 µM, respectively.
Consider `O=C(N[C@@H](CNc1cc(-c2ccc(C(F)(F)F)c(Cl)c2)ncn1)c1ccccc1)C(F)(F)F` [Example 26, N-[(1R)-2-({6-[3-chloro-4-(trifluoromethyl)phenyl]pyrimidin-4-yl}amino)-1-phenylethyl]-2,2,2-trifluoroacetamide], for which the IC50 against Rat FAAH-1 was > 10 µM; against FAAH, 1.6 µM.
On the same counts, the results for `N[C@@H](CNc1cc(-c2ccc(C(F)(F)F)c(Cl)c2)ncn1)c1cccc(F)c1` [Example 37, (1R)—N^2-[6-(3-Chloro-4-trifluoromethyl-phenyl)-pyrimidin-4-yl]-1-(3-fluoro-phenyl)-ethane-1,2-diamine, trifluoroacetic acid salt] are 0.11 µM and 0.039 µM.
On the same counts, the results for `N[C@@H](CNc1cc(-c2ccc(SC(F)(F)F)cc2)ncn1)c1ccccc1` [Example 11, (1R)-1-Phenyl-N^2-(6-{4-[(trifluoromethyl)sulfanyl]phenyl}pyrimidin-4-yl)ethane-1,2-diamine hydrochloride acid salt] are 0.17 µM and 0.019 µM.
For the compound `N[C@@H](CNc1cc(-c2ccc(OC(F)(F)F)c(F)c2)ncn1)c1ccccc1` [Example 8, (1R)—N^2-{6-[3-Fluoro-4-(trifluoromethoxy)phenyl]pyrimidin-4-yl}-1-phenylethane-1,2-diamine hydrochloride acid salt], the IC50 against Rat FAAH-1 is 0.17 µM; at FAAH it was 0.05 µM.
On the same counts, the results for `N#Cc1cccc([C@@H](N)CNc2cc(-c3ccc(C(F)(F)F)c(Cl)c3)ncn2)c1` [Example 49, (1R)-3-{1-Amino-2-[6-(3-chloro-4-trifluoromethyl-phenyl)-pyrimidin-4-ylamino]-ethyl}-benzonitrile] are 0.77 µM and 1 µM.
For `N[C@H](CNc1cc(-c2ccc(C(F)(F)F)c(Cl)c2)ncn1)c1ccc(Cl)c(Cl)c1` [Example 42, (1S)—N^2-[6-(3-Chloro-4-trifluoromethyl-phenyl)-pyrimidin-4-yl]-1-(3,4-dichloro-phenyl)-ethane-1,2-diamine] the same measures were 5 µM and 8 µM.
For `N[C@@H](CNc1cc(-c2ccc(OCC(F)(F)F)c(F)c2)ncn1)c1ccccc1` [Example 21, (1R)—N^2-{6-[3-Fluoro-4-(2,2,2-trifluoroethoxy)phenyl]pyrimidin-4-yl}-1-phenylethane-1,2-diamine hydrochloride acid salt] the same measures were 0.675 µM and 0.077 µM.

For orientation: IC50 means the concentration that gives 50% inhibition. Low values mean greater potency, high ones weaker potency.
